{
  "source": "ChEMBL document CHEMBL1821699",
  "about": "“1,5-Disubstituted indole derivatives as selective human neuronal nitric oxide synthase inhibitors” (Bioorg Med Chem Lett, 2011)",
  "data": [
    {"biological_target": "T1, Nitric oxide synthase 3 (Homo sapiens, UniProt P29474)", "T1 sequence (P29474 whole entry)": "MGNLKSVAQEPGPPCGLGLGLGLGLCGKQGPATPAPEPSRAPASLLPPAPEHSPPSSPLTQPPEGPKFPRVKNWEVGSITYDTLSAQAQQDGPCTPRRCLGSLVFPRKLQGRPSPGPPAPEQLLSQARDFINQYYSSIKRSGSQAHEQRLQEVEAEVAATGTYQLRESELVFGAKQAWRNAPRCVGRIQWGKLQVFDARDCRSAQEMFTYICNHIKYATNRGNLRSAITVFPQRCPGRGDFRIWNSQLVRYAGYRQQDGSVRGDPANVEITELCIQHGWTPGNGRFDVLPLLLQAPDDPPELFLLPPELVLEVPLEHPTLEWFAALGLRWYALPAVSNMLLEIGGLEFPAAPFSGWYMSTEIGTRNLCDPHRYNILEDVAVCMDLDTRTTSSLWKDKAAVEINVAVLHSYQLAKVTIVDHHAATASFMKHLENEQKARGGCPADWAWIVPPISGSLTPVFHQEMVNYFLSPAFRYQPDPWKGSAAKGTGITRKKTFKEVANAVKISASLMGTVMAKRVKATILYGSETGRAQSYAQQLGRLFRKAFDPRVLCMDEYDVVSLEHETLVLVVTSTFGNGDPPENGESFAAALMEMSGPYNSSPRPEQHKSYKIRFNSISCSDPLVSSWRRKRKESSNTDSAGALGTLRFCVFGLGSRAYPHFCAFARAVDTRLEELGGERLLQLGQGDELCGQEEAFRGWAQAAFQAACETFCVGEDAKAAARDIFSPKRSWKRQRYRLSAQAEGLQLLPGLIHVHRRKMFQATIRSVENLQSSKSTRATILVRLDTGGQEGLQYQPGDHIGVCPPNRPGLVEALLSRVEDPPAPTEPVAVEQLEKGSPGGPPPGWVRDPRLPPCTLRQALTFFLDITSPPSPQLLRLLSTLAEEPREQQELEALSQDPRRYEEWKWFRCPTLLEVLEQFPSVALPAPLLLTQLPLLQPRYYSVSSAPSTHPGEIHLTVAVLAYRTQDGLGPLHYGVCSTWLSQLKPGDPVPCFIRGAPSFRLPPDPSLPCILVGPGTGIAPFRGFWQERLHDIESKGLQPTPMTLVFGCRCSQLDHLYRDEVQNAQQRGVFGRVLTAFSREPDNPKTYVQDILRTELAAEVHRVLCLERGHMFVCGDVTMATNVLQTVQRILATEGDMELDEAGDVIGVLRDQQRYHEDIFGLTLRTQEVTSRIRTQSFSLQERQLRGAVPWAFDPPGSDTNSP", "experiment": "Inhibition of human recombinant eNOS expressed in Sf9 cells assessed as conversion of [3H]-L-arginine to [3H]-L-citrulline by radiometric method", "units": {"IC50": "µM"}, "values": [
      {"smiles": "CN1CCC[C@H]1CCn1ccc2cc(NC(=N)c3cccs3)ccc21", "IC50": 1.92},
      {"smiles": "CN1CCC[C@@H]1CCn1ccc2cc(NC(=N)c3cccs3)ccc21", "IC50": 3.37}
    ]},
    {"biological_target": "Nitric oxide synthase, inducible (Homo sapiens, UniProt P35228)", "sequence (P35228 whole entry)": "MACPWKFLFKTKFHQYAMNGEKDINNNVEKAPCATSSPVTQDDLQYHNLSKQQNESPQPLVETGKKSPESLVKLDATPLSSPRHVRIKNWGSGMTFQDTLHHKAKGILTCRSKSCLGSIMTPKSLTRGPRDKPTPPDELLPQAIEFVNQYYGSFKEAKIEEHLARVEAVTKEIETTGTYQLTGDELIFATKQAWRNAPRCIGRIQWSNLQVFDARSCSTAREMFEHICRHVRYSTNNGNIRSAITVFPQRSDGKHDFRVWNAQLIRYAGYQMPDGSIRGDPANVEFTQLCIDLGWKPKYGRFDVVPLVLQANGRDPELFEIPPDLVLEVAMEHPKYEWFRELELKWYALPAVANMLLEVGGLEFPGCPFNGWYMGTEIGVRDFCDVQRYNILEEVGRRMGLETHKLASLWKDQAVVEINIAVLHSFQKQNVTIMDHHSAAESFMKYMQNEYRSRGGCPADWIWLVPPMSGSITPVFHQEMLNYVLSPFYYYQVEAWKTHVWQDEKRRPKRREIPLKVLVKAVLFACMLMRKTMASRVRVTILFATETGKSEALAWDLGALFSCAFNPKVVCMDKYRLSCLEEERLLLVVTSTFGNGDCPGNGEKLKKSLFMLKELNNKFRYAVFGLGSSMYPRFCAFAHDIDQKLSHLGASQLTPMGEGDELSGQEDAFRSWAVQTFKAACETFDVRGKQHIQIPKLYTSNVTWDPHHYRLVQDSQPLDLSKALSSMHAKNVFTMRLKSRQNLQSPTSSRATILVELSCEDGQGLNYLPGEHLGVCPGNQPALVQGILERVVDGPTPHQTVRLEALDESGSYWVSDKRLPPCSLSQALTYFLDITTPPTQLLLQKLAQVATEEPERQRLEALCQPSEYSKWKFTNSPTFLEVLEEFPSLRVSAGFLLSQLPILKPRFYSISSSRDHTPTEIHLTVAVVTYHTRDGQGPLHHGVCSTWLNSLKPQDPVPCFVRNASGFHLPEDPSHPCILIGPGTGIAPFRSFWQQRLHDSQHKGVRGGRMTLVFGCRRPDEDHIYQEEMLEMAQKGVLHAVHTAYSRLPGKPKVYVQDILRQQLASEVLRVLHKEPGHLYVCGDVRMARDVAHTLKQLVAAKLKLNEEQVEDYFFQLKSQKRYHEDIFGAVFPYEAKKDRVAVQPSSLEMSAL", "experiment": "Inhibition of human recombinant iNOS expressed in Sf9 cells assessed as conversion of [3H]-L-arginine to [3H]-L-citrulline by radiometric method", "units": {"IC50": "µM"}, "values": [
      {"smiles": "N=C(Nc1ccc2c(ccn2CCCNC23CC4CC(CC(C4)C2)C3)c1)c1cccs1", "IC50": 18},
      {"smiles": "N=C(Nc1ccc2c(ccn2CCN2CCCCC2)c1)c1cccs1", "IC50": 4.61},
      {"smiles": "N=C(Nc1ccc2c(ccn2CCCNC2CC2)c1)c1cccs1", "IC50": 34},
      {"smiles": "CN(C)CCn1ccc2cc(NC(=N)c3cccs3)ccc21", "IC50": 15.7},
      {"smiles": "CN1CCC[C@H]1CCn1ccc2cc(NC(=N)c3cccs3)ccc21", "IC50": 17},
      {"smiles": "N=C(Nc1ccc2c(ccn2CCCN2CCOCC2)c1)c1cccs1", "IC50": 41.6},
      {"smiles": "CN1CCCCC1CCn1ccc2cc(NC(=N)c3cccs3)ccc21", "note": "(stereo not drawn)", "IC50": 9.8},
      {"smiles": "CN1CCC[C@@H]1CCn1ccc2cc(NC(=N)c3cccs3)ccc21", "IC50": 22},
      {"smiles": "CN1CCCC1CCn1ccc2cc(NC(=N)c3cccs3)ccc21", "note": "(racemic)", "IC50": 14},
      {"smiles": "CN1CCCC(n2ccc3cc(NC(=N)c4ccco4)ccc32)CC1", "note": "(single isomer, unassigned; (-))", "IC50": 20},
      {"smiles": "CN1CCCC(n2ccc3cc(NC(=N)c4ccco4)ccc32)CC1", "note": "(stereo in doubt; (+)-15)", "IC50": 73}
    ]}
  ]
}
